Experimental data taken from publication PMC4769951 (Bioorganic & medicinal chemistry, 2016).

Columns and labels:
[1] = Aqueous stability in simulated gastric fluid; format: physicochemical; details: 37 °C
Caco-2 cells = details: cited from earlier work
[2] = Plasma stability, mouse plasma; format: in vitro ADME; details: female, CD-1, mouse, pooled plasma
[3] = Plasma stability, human plasma; format: in vitro ADME; details: female, pooled plasma
[4] = Plasma stability, rat plasma; format: in vitro ADME; details: female, Sprague-Dawley, pooled plasma
[5] = in vivo, cited from earlier work

CCCCCCCCCCCC(=O)O[C@H]1[C@@H](F)[C@H](n2cnc3c(N)ncnc32)O[C@@H]1CNS(=O)(=O)NC(=O)c1ccccc1O.CCN(CC)CC [Compound 8, 9-[2,5-Dideoxy-3-O-(dodecanoyl)-2-fluoro-5-{N-(N-2-hydroxybenzoyl)sulfamoyl}amino-β-D-ribofuranosyl]adenine Triethylammonium Salt]
Chemical hydrolysis to release the parent drug 2 ([1]; pH 1.2, 2 h): not observed

Nc1ncnc2c1ncn2[C@@H]1O[C@H](CNS(=O)(=O)NC(=O)c2ccccc2O)[C@@H](O)[C@H]1F [Compound 2]
Caco-2 permeability relative to 1 (Caco-2 cells): 3.5 fold | Efflux ratio (Caco-2 cells): 0.3 | Papp AP-BL (Caco-2 cells): 4.2 ×10⁻⁶ cm/s | Papp BL-AP (Caco-2 cells): 1.3 ×10⁻⁶ cm/s | remaining at 6 h, 200 µM [2]: 100% | remaining at 6 h, 200 µM [3]: 100% | remaining at 6 h, 200 µM [4]: 100% | Oral exposure relative to 1 ([5]; po): 3 fold | Clearance relative to 1 [5]: 3 fold

CC(=O)O[C@H]1[C@@H](F)[C@H](n2cnc3c(N)ncnc32)O[C@@H]1CNS(=O)(=O)NC(=O)c1ccccc1O.CCN(CC)CC [Compound 3, 9-[3-O-(Acetyl)-2,5-dideoxy-2-fluoro-5-{N-(N-2-hydroxybenzoyl)sulfamoyl}amino-β-D-ribofuranosyl]adenine Triethylammonium Salt]
% hydrolyzed to parent drug 2 ([1]; pH 7.4, 2 h): 8%
